Data taken from US9738634B2, “Heterocyclic amide compound and herbicide” (SYNGENTA PARTICIPATIONS AG, priority 2013, dated 2017).

What was measured:
Assay type in all cases: in vivo
Conditions in all cases: treatment dosage 320 g/ha
[1] = system: barnyard grass; assay: Test Example 1: weedkilling efficacy, preemergent weed treatment in the submerged state; A: barnyard grass
Outline: (§1)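 Emulsion diluted with water to the specified per-hectare dosage is applied onto flood water (4 cm) over alluvial soil on the sowing day, with barnyard grass, bulrush and pondweed seeded and rice (2.5-leaf) transplanted; plants grow at 25–30 °C and are rated at 3 weeks.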

[2] = system: bulrush; assay: Test Example 1: weedkilling efficacy, preemergent weed treatment in the submerged state; B: bulrush
Outline: as §1

[3] = system: oval-leafed pondweed; assay: Test Example 1: weedkilling efficacy, preemergent weed treatment in the submerged state; C: oval-leafed pondweed
Outline: as §1

[4] = system: transplanted rice; assay: Test Example 1: preemergent weed treatment in the submerged state, effect on crop; a: transplanted rice
Outline: as §1

[5] = system: barnyard grass; assay: Test Example 2: weedkilling efficacy, growth period weed treatment in the submerged state; A: barnyard grass
Outline: (§2)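 First, alluvial soil in pots is flooded to 4 cm and mixed seed is sown. Next, plants grow in a greenhouse at 25 to 30° C until the 1-2 leaf stage. Then diluted emulsion is applied onto the water surface at the given g/ha rate, and injury is assessed after 3 weeks.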

[6] = system: bulrush; assay: Test Example 2: weedkilling efficacy, growth period weed treatment in the submerged state; B: bulrush
Outline: as §2

[7] = system: oval-leafed pondweed; assay: Test Example 2: weedkilling efficacy, growth period weed treatment in the submerged state; C: oval-leafed pondweed
Outline: as §2

[8] = system: crabgrass; assay: Test Example 3: weedkilling efficacy through soil treatment; D: crabgrass
Outline: (§3)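 Crop and weed responses were judged three weeks after a uniform surface spray of the water-diluted emulsion at the given g/ha rate. Seeds sat beneath about 1.5 cm of sterilized diluvial soil, and boxes stood in a greenhouse at 25 to 30° C.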

[9] = system: green foxtail; assay: Test Example 3: weedkilling efficacy through soil treatment; E: green foxtail
Outline: as §3

[10] = system: barnyard grass; assay: Test Example 3: weedkilling efficacy through soil treatment; F: barnyard grass
Outline: as §3

[11] = system: wild oat; assay: Test Example 3: weedkilling efficacy through soil treatment; G: wild oat
Outline: as §3

[12] = system: black-grass; assay: Test Example 3: weedkilling efficacy through soil treatment; H: black-grass
Outline: as §3

[13] = system: Italian ryegrass; assay: Test Example 3: weedkilling efficacy through soil treatment; I: Italian ryegrass
Outline: as §3

[14] = system: common wind-grass; assay: Test Example 3: weedkilling efficacy through soil treatment; J: common wind-grass
Outline: as §3

[15] = system: Indian mallow; assay: Test Example 3: weedkilling efficacy through soil treatment; K: Indian mallow
Outline: as §3

[16] = system: redroot pigweed; assay: Test Example 3: weedkilling efficacy through soil treatment; L: redroot pigweed
Outline: as §3

[17] = system: chickweed; assay: Test Example 3: weedkilling efficacy through soil treatment; N: chickweed
Outline: as §3

[18] = system: catchweed; assay: Test Example 3: weedkilling efficacy through soil treatment; O: catchweed
Outline: as §3

[19] = system: birds-eye speedwell; assay: Test Example 3: weedkilling efficacy through soil treatment; p: birds-eye speedwell
Outline: as §3

[20] = system: directly sown rice; assay: Test Example 3: soil treatment, effect on crop; b: directly sown rice
Outline: as §3

[21] = system: corn; assay: Test Example 3: soil treatment, effect on crop; c: corn
Outline: as §3

[22] = system: soybean; assay: Test Example 3: soil treatment, effect on crop; d: soybean
Outline: as §3

[23] = system: wheat; assay: Test Example 3: soil treatment, effect on crop; e: wheat
Outline: as §3

[24] = system: beet; assay: Test Example 3: soil treatment, effect on crop; f: beet
Outline: as §3

[25] = system: rapeseed; assay: Test Example 3: soil treatment, effect on crop; g: rapeseed
Outline: as §3

[26] = system: crabgrass; assay: Test Example 4: weedkilling efficacy by foliar treatment; D: crabgrass
Outline: (§4)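 Seeds are spot-sown into sterilized diluvial soil and covered with about 1.5 cm of soil. After 14 days' greenhouse growth at 25 to 30° C, plants are sprayed on stems and leaves with diluted emulsion at the stated g/ha rate, then scored at 3 weeks.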

[27] = system: green foxtail; assay: Test Example 4: weedkilling efficacy by foliar treatment; E: green foxtail
Outline: as §4

[28] = system: barnyard grass; assay: Test Example 4: weedkilling efficacy by foliar treatment; F: barnyard grass
Outline: as §4

[29] = system: wild oat; assay: Test Example 4: weedkilling efficacy by foliar treatment; G: wild oat
Outline: as §4

[30] = system: black-grass; assay: Test Example 4: weedkilling efficacy by foliar treatment; H: black-grass
Outline: as §4

[31] = system: Italian ryegrass; assay: Test Example 4: weedkilling efficacy by foliar treatment; I: Italian ryegrass
Outline: as §4

[32] = system: common wind-grass; assay: Test Example 4: weedkilling efficacy by foliar treatment; J: common wind-grass
Outline: as §4

[33] = system: Indian mallow; assay: Test Example 4: weedkilling efficacy by foliar treatment; K: Indian mallow
Outline: as §4

[34] = system: redroot pigweed; assay: Test Example 4: weedkilling efficacy by foliar treatment; L: redroot pigweed
Outline: as §4

[35] = system: fig-leafed goosefoot; assay: Test Example 4: weedkilling efficacy by foliar treatment; M: fig-leafed goosefoot
Outline: as §4

[36] = system: chickweed; assay: Test Example 4: weedkilling efficacy by foliar treatment; N: chickweed
Outline: as §4

[37] = system: catchweed; assay: Test Example 4: weedkilling efficacy by foliar treatment; O: catchweed
Outline: as §4

[38] = system: birds-eye speedwell; assay: Test Example 4: weedkilling efficacy by foliar treatment; p: birds-eye speedwell
Outline: as §4

[39] = system: directly sown rice; assay: Test Example 4: foliar treatment, effect on crop; b: directly sown rice
Outline: as §4

[40] = system: corn; assay: Test Example 4: foliar treatment, effect on crop; c: corn
Outline: as §4

[41] = system: soybean; assay: Test Example 4: foliar treatment, effect on crop; d: soybean
Outline: as §4

[42] = system: wheat; assay: Test Example 4: foliar treatment, effect on crop; e: wheat
Outline: as §4

[43] = system: beet; assay: Test Example 4: foliar treatment, effect on crop; f: beet
Outline: as §4

[44] = system: rapeseed; assay: Test Example 4: foliar treatment, effect on crop; g: rapeseed
Outline: as §4

SMILES: CCOc1cc(C(F)(F)F)cc(NC(=O)C(C)(C)N2COC(C)=C(c3ccccc3)C2=O)n1 [B-2-50]
- A (barnyard grass) weedkilling efficacy grade [1]: 5 (weed kill ratio 90% or more, (practically complete withering))
- B (bulrush) weedkilling efficacy grade [2]: 5 (weed kill ratio 90% or more, (practically complete withering))
- C (oval-leafed pondweed) weedkilling efficacy grade [3]: 5 (weed kill ratio 90% or more, (practically complete withering))
- a (transplanted rice) effect on crop grade [4]: 0 (weed kill ratio 5% or less (practically no effect))
- A (barnyard grass) weedkilling efficacy grade [5]: 5 (weed kill ratio 90% or more, (practically complete withering))
- B (bulrush) weedkilling efficacy grade [6]: 4 (weed kill ratio 70% or more, less than 90%)
- C (oval-leafed pondweed) weedkilling efficacy grade [7]: 4 (weed kill ratio 70% or more, less than 90%)
- D (crabgrass) weedkilling efficacy grade [8]: 5 (weed kill ratio 90% or more, (practically complete withering))
- E (green foxtail) weedkilling efficacy grade [9]: 5 (weed kill ratio 90% or more, (practically complete withering))
- F (barnyard grass) weedkilling efficacy grade [10]: 4 (weed kill ratio 70% or more, less than 90%)
- G (wild oat) weedkilling efficacy grade [11]: 0 (weed kill ratio 5% or less (practically no effect))
- H (black-grass) weedkilling efficacy grade [12]: 2 (weed kill ratio 20% or more, less than 40%)
- I (Italian ryegrass) weedkilling efficacy grade [13]: 3 (weed kill ratio 40% or more, less than 70%)
- J (common wind-grass) weedkilling efficacy grade [14]: 5 (weed kill ratio 90% or more, (practically complete withering))
- K (Indian mallow) weedkilling efficacy grade [15]: 0 (weed kill ratio 5% or less (practically no effect))
- L (redroot pigweed) weedkilling efficacy grade [16]: 2 (weed kill ratio 20% or more, less than 40%)
- N (chickweed) weedkilling efficacy grade [17]: 0 (weed kill ratio 5% or less (practically no effect))
- O (catchweed) weedkilling efficacy grade [18]: 0 (weed kill ratio 5% or less (practically no effect))
- P (birds-eye speedwell) weedkilling efficacy grade [19]: 0 (weed kill ratio 5% or less (practically no effect))
- b (directly sown rice) effect on crop grade [20]: 1 (weed kill ratio 5% or more, less than 20%)
- c (corn) effect on crop grade [21]: 1 (weed kill ratio 5% or more, less than 20%)
- d (soybean) effect on crop grade [22]: 0 (weed kill ratio 5% or less (practically no effect))
- e (wheat) effect on crop grade [23]: 0 (weed kill ratio 5% or less (practically no effect))
- f (beet) effect on crop grade [24]: 0 (weed kill ratio 5% or less (practically no effect))
- g (rapeseed) effect on crop grade [25]: 0 (weed kill ratio 5% or less (practically no effect))
- D (crabgrass) weedkilling efficacy grade [26]: 2 (weed kill ratio 20% or more, less than 40%)
- E (green foxtail) weedkilling efficacy grade [27]: 2 (weed kill ratio 20% or more, less than 40%)
- F (barnyard grass) weedkilling efficacy grade [28]: 0 (weed kill ratio 5% or less (practically no effect))
- G (wild oat) weedkilling efficacy grade [29]: 0 (weed kill ratio 5% or less (practically no effect))
- H (black-grass) weedkilling efficacy grade [30]: 1 (weed kill ratio 5% or more, less than 20%)
- I (Italian ryegrass) weedkilling efficacy grade [31]: 1 (weed kill ratio 5% or more, less than 20%)
- J (common wind-grass) weedkilling efficacy grade [32]: 1 (weed kill ratio 5% or more, less than 20%)
- K (Indian mallow) weedkilling efficacy grade [33]: 1 (weed kill ratio 5% or more, less than 20%)
- L (redroot pigweed) weedkilling efficacy grade [34]: 0 (weed kill ratio 5% or less (practically no effect))
- M (fig-leafed goosefoot) weedkilling efficacy grade [35]: 3 (weed kill ratio 40% or more, less than 70%)
- N (chickweed) weedkilling efficacy grade [36]: 0 (weed kill ratio 5% or less (practically no effect))
- O (catchweed) weedkilling efficacy grade [37]: 0 (weed kill ratio 5% or less (practically no effect))
- P (birds-eye speedwell) weedkilling efficacy grade [38]: 0 (weed kill ratio 5% or less (practically no effect))
- b (directly sown rice) effect on crop grade [39]: 0 (weed kill ratio 5% or less (practically no effect))
- c (corn) effect on crop grade [40]: 0 (weed kill ratio 5% or less (practically no effect))
- d (soybean) effect on crop grade [41]: 0 (weed kill ratio 5% or less (practically no effect))
- e (wheat) effect on crop grade [42]: 0 (weed kill ratio 5% or less (practically no effect))
- f (beet) effect on crop grade [43]: 0 (weed kill ratio 5% or less (practically no effect))
- g (rapeseed) effect on crop grade [44]: 0 (weed kill ratio 5% or less (practically no effect))
